This note sets out measurements from US5496847A, “Aminomethyl-benzodioxane and benzopyran serotonergic agents” (Bristol-Myers Squibb Co., priority 1995, dated 1996).

Where a name gives a salt, the structure may show the parent alone.

What is called IC50 is the concentration that inhibits the measured activity by half.

The assay deals with T1, 5-HT1A receptor.
T1 construct: from tissue
T1 sequence (F6Q2H9 1-422): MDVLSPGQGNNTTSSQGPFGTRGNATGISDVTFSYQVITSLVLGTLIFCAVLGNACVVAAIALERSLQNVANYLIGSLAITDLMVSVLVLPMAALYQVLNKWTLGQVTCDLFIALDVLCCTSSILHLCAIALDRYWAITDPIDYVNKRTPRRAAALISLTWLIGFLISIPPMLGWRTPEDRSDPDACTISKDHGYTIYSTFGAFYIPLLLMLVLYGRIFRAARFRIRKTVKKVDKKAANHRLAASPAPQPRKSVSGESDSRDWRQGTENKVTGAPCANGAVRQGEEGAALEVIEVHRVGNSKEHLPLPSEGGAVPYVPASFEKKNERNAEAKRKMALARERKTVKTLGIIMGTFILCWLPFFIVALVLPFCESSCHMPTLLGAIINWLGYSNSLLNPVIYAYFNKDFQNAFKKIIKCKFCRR
The assay is described as follows: In vitro binding to the 5-HT1A receptor (method of Peroutka, Brain Research 344, 167 (1985), minor modifications). The following applies: in vitro binding to 5-HT1A receptor; class symbols. As to the method:
In vitro IC50 test values for binding to the 5-HT1A receptor were determined for representative compounds of Formula I by the method of S. J. Peroutka, Brain Research 344, 167 (1985); with only minor modifications. Test IC50 values lower than 100 nM are considered to reflect activity at the 5-HT1A receptor.
For `OC1(c2ccc(F)c(F)c2)CCC(NCC2COc3ccccc3O2)CC1` (racemic) [Example 13, (±)-Cis-4-[(1,4-Benzodioxan-2-yl)methylamino]-1-(3,4-difluorophenyl)cyclohexanol], the IC50 is below 1 nM.

Consider `OC1(c2ccc3c(c2)OCO3)CCC(NCC2COc3ccccc3O2)CC1` (stereo not drawn) [Example 1, Cis-4-[(2S-1,4-Benzodioxan-2-yl)methylamino]-1-(1,3-benzodioxol-5-yl)cyclohexanol], for which the IC50 is below 1 nM. The value for `CCN(CC1COc2ccccc2O1)C1CCC(O)(c2ccc3c(c2)OCO3)CC1` (mixture of isomers) [Example 7, (±)-Cis-N-Ethyl-N,[4-(1,3-benzodioxol-5-yl)-4-hydroxycyclohexyl]-1,4-benzodioxane-2-methanamine fumarate] was 5 to 25 nM. In the case of `COC1(c2ccc3c(c2)OCO3)CCC(NCC2COc3ccccc3O2)CC1` (stereo not drawn) [Example 2, Cis-N-[4-(1,3-Benzodioxol-5-yl)-4-methoxycyclohexyl]-2S-1,4-benzodioxane-2-methanamine hemifumarate], the IC50 was below 1 nM. With `COC1(c2ccc3c(c2)OCO3)CCC(NCC2COc3ccccc3O2)CC1` (racemic) [Example 6, (±)-Cis-N-[4-(1,3-Benzodioxol-5-yl)-4-methoxycyclohexyl]-1,4-benzodioxane-2-methanamine hemifumarate], the IC50 lay within 1 to 5 nM.

For the compound `C1=C(c2ccc3c(c2)OCO3)CCC(NC[C@H]2COc3ccccc3O2)C1` (stereo partly drawn) [Example 12, N-[4-(1,3-Benzodioxol-5-yl)-3-cyclohexen-1-yl]-2S-1,4-benzodioxane-2-methanamine], the IC50 was 5 to 25 nM.

On to `COC1(c2ccc3c(c2)OCO3)CCC(N(C)CC2COc3ccccc3O2)CC1` (mixture of isomers) [Example 8, (±) -Cis-N-Methyl-N-[4-(1,3-benzodioxol-5-yl)-4-methoxycyclohexyl]-1,4,-benzodioxane-2-methanamine fumarate], for which the IC50 lay within 5 to 25 nM. `COC1(c2ccc3c(c2)OCO3)CCC(NCC2COc3ccccc3O2)CC1` (single isomer, unassigned; (-)) [Example 9] returned an IC50 below 1 nM. With `CCOC1(c2ccc3c(c2)OCO3)CCC(NCC2COc3ccccc3O2)CC1` (racemic) [Example 5, (±)-Cis-N-[4-(1,3-benzodioxol-5-yl)-4-ethoxycyclohexyl]-1,4-benzodioxane-2-methanamine fumarate], the IC50 lay within 1 to 5 nM. Turning to `COC1(c2ccc3c(c2)OCCO3)CCC(NCC2COc3ccccc3O2)CC1` (racemic) [Example 4, (±)-Cis-N-[4-(1,4-benzodioxan-6-yl)-4-methoxycyclohexyl]-1,4-benzodioxane-2-methanamine hemifumarate], the IC50 was in the range of 1 to 5 nM. As to `COC1(c2ccc3c(c2)OCO3)CCC(NCC2COc3ccccc3O2)CC1` (racemic) [Example 10, (±)-Trans-N-[4-(1,3-benzodioxol-5-yl)-4-methoxycyclohexyl]-1,4-benzodioxane-2-methanamine hemifumarate], the IC50 was 5 to 25 nM. The value for `OC1(c2ccc3c(c2)OCO3)CCC(NCC2CCc3ccccc3O2)CC1` (racemic) [Example 11, (±)-Cis-4-[[(3,4-dihydro-2H-1-benzopyran-2-yl)methyl]amino]-1-(1,3-benzodioxol-5-yl)cyclohexanol] was below 1 nM.
